In PubChem BioAssay AID463206 (Broad Institute, 2010):
Activity calls are given as the source filed them.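 The calls were made as follows: active = caspase luminescence falls with dose and the half-maximal concentration AC50 from the fitted curve is at or below a set limit; inconclusive = flat fit at 30 to 70% signal loss, or invalid fit; inactive = AC50 above the limit, or signal rises instead.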

tested on: INS-1E cytokine-induced caspase-3/7, Caspase-Glo luminescence, 48 h; assay: suppression of cytokine-driven beta-cell apoptosis – INS-1E rat cells, luminescence, orthogonal assay for beta-cell apoptosis protection project, dose response (AID 463206)

| Structure (SMILES) | AC50 |
| --- | --- |
| CCN(CC)CCOC(=O)c1ccc(N/C=C(/C#N)c2nc(-c3ccc4c(c3)OCO4)cs2)cc1 | > 26 µM (inactive) |
| Oc1ccc2ccccc2c1N=Nc1ccccn1 | > 26 µM (inactive) |
| CCN(CC)c1ccc(/C=N/NC(=O)c2nnn(-c3nonc3N)c2C(C)C)c(O)c1 | > 26 µM (inactive) |
| O=C(NCc1ccccc1)C1=C[C@@H](c2csc3ccccc23)C[C@@H](OCc2ccc(CO)cc2)O1 | > 26 µM (inactive) |
| Cc1ccc(C(C)C)c(OCc2nn(CC(=O)c3ccc(Cl)cc3)c3[n+]2CCCCC3)c1 | > 26 µM (inactive) |
| NC(=S)N/N=C/c1ccc(C23CC4CC(CC(C4)C2)C3)cc1 | > 26 µM (inactive) |
| COc1cccc(N=Nc2ccc3cccnc3c2O)c1 | > 26 µM (inactive) |
| Cc1ccc(NC2=CC(=O)C(=O)c3ccccc32)cc1 | > 26 µM (inactive) |
| Nc1ccc(N2CCCCC2)cc1N1CCCCC1 | > 26 µM (inactive) |
| COc1ccc(/C=C/C(=O)c2ccncc2)c2ccccc12 | > 26 µM (inactive) |
| O=C(N/N=C/c1c(O)ccc2ccccc12)c1cccnc1 | > 26 µM (inactive) |
| CN(C)CCCn1cnc2c(c1=N)C(c1ccccc1)c1ccc3ccccc3c1O2 (stereo not drawn) | 9.99 µM |
| CN1CCN(c2ccc(CNS(=O)(=O)Cc3cccc(C(F)(F)F)c3)cc2)CC1 | > 26 µM (inactive) |
| CC1=CC(=O)C(C(C)C)=C/C1=N/OS(=O)(=O)c1ccccc1 | > 26 µM (inactive) |
| COc1ccc(C2=Nn3c(nnc3-c3ccccc3Cl)SC2)cc1OC1CCCC1 | > 26 µM (inactive) |
| O=[N+]([O-])c1cc(CN2CCN(c3ccccc3)CC2)c(O)c2ncccc12 | > 26 µM (inactive) |
| CCOC(=O)c1cnc(-n2nc(C)cc2C)nc1NCc1ccccc1 | > 26 µM (inactive) |
| Cc1ccc2c(c1)[nH]c1c(N3CCN(Cc4ccccc4)CC3)ncnc12 | > 26 µM (inactive) |
| COc1ccccc1-n1c(-c2ccccc2)c[n+]2c1CCc1ccccc1-2 | > 26 µM (inactive) |
| O=C1C=C(N2CCCCC2)c2ccccc2C1=O | > 26 µM (inactive) |
| Cn1nc(C(C)(C)C)cc1C(=O)NCc1ccc2c(c1)OCO2 | > 26 µM (inactive) |
| CCCCSc1nc2sc3c(c2c(=O)n1-c1ccc(C)cc1)CCN(C)C3 | > 26 µM (inactive) |

| Structure (SMILES) | AC50 |
| --- | --- |
| CCCCCCCC[n+]1cccc2c3ccccc3ccc21 | > 26 µM (inactive) |
| CN(C)C1CCN(Cc2cc(COCc3ccccc3)c3cccnc3c2O)C1 (stereo not drawn) | > 26 µM (inactive) |
| CCN(CC)c1ccc(N=C2C(=O)Nc3ccccc32)cc1 | > 26 µM (inactive) |
| Cc1ccc(NC(=O)C2=C(c3ccccc3)S(=O)(=O)CCS2(=O)=O)cc1 | > 26 µM (inactive) |
| CC1C/C(=C/c2ccncc2)C(=O)/C(=C/c2ccncc2)C1 (stereo not drawn) | > 26 µM (inactive) |
| Cc1ccc(-n2c(-c3ccccc3)c[n+]3c2CCC3)cc1 | > 26 µM (inactive) |
| COc1cccc(/C=N/NC(=O)c2c(C)nc3ccc(Cl)cn23)c1O | > 26 µM (inactive) |
| CCCCCCn1c2c(c(=N)c3c1CCC3)CCC2 | > 26 µM (inactive) |
| CCCOc1nc2c(c(=O)n(C)c(=O)n2C)n1Cc1cccc2ccccc12 | > 26 µM (inactive) |
| Cc1cc(C)c(S(=O)(=O)/N=C2\C=C(Nc3ccc(C(=O)O)cc3)C(=O)c3ccccc32)c(C)c1 | > 26 µM (inactive) |
| CCCCOc1ccc(C(=O)NNC(=S)NC(=O)CC)cc1 | > 26 µM (inactive) |
| CCC(Sc1nc(C)cc(C)n1)C(=O)NC1=NN=C(c2ccc(C)cc2)CS1 (stereo not drawn) | > 26 µM (inactive) |
| COC(=O)C1=C(c2ccc(OCc3ccccc3)cc2)C[C@@H]2CC[C@H]1N2C(=O)NC1CCN(Cc2ccccc2)CC1 | > 26 µM (inactive) |
| Cc1cc(C)n(-c2nc(Nc3ccccc3C(F)(F)F)nc(-n3nc(C)cc3C)n2)n1 | > 26 µM (inactive) |
| Fc1ccccc1/C=N/Nc1nc(-c2ccccn2)nc2ccccc12 | > 26 µM (inactive) |
| O=C(N/N=C/c1ccc[nH]1)c1ccc(COc2cccc3cccnc23)cc1 | > 26 µM (inactive) |
| Cc1cccc(NC(=O)c2nc(S(=O)(=O)Cc3ccccc3)ncc2Cl)c1 | > 26 µM (inactive) |
| CCCCCc1ccc(OCCCC[n+]2ccc(C)cc2)c(CCCCC)c1 | > 26 µM (inactive) |
| O=C(NCc1cccnc1)/C(=C\c1ccc(-c2cccc(Cl)c2)o1)S(=O)(=O)c1ccccc1 | > 26 µM (inactive) |
| COc1ccc(OC)c2c1C(=O)C(Cl)=C(Cl)C2=O | > 26 µM (inactive) |
| O=C(Nc1nc(-c2ccccn2)cs1)c1ccccc1-n1cnnn1 | > 26 µM (inactive) |
